Test results: the supplement of paper PMC4862054

Assays:
Conditions in all cases: incubation time: 72 h
[1] = tested on: HCC1143; assay: drug sensitivity score (DSS), CellTox Green (DSS (AUC-based score)); higher = stronger drug effect (viability inhibition or cytotoxicity); extreme values may be limits of the assay
Summary of the method: (§1)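 For 72 h, breast cancer cell lines seeded at 20 µl suspension per well in 384-well plates were incubated with compound at 5 concentrations in 10-fold steps spanning a 10,000-fold range that differed by compound. The first reading was CellTox Green fluorescence at 485/520 nm, and the second was CellTiter-Glo luminescence after 10 min at room temperature. Both were normalised per plate to 0.1 % DMSO and a positive kill control, and the drug sensitivity score was obtained from the area under the fitted dose-response curve.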

[2] = tested on: CAL-148; assay: as above
Summary of the method: as §1

[3] = tested on: Hs578T; assay: as above
Summary of the method: as §1

[4] = tested on: HCC1599; assay: as above
Summary of the method: as §1

[5] = tested on: CAL-51; assay: as above
Summary of the method: as §1

[6] = tested on: HCC1937; assay: as above
Summary of the method: as §1

[7] = tested on: MDA-MB-231; assay: as above
Summary of the method: as §1

[8] = tested on: MCF-10A; assay: as above
Summary of the method: as §1

[9] = tested on: MDA-MB-453; assay: as above
Summary of the method: as §1

[10] = tested on: HDQ-P1; assay: as above
Summary of the method: as §1

[11] = tested on: MDA-MB-468; assay: as above
Summary of the method: as §1

[12] = tested on: BT-474; assay: as above
Summary of the method: as §1

[13] = tested on: DU-4475; assay: as above
Summary of the method: as §1

[14] = tested on: MFM-223; assay: normalised viability (% of control), CellTiter-Blue; higher = more viable cells (about 100 = DMSO control)
Description: (§2)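 DSRT, CellTiter-Blue viability, 72 h incubation. Signal is normalised to DMSO and benzethonium chloride controls. Value is the normalised response at dose 3.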

[15] = tested on: HCC1143; assay: as above
Description: as §2

[16] = tested on: CAL-120; assay: as above
Description: as §2

[17] = tested on: CAL-148; assay: as above
Description: as §2

[18] = tested on: Hs578T; assay: as above
Description: as §2

[19] = tested on: HCC1599; assay: as above
Description: as §2

[20] = tested on: CAL-51; assay: as above
Description: as §2

[21] = tested on: HCC1937; assay: as above
Description: as §2

[22] = tested on: MDA-MB-231; assay: as above
Description: as §2

[23] = tested on: MDA-MB-453; assay: as above
Description: as §2

[24] = tested on: CAL-85-1; assay: as above
Description: as §2

[25] = tested on: MDA-MB-436; assay: as above
Description: as §2

[26] = tested on: BT-549; assay: as above
Description: as §2

[27] = tested on: MDA-MB-468; assay: as above
Description: as §2

[28] = tested on: BT-474; assay: as above
Description: as §2

[29] = tested on: DU-4475; assay: as above
Description: as §2

Row | Compound | drug sensitivity score [1] | drug sensitivity score [2] | drug sensitivity score [3] | drug sensitivity score [4] | drug sensitivity score [5] | drug sensitivity score [6] | drug sensitivity score [7] | drug sensitivity score [8] | drug sensitivity score [9] | drug sensitivity score [10] | drug sensitivity score [11] | drug sensitivity score [12] | drug sensitivity score [13] | normalised viability ([14]; 100 nM) [%] | normalised viability ([15]; 100 nM) [%] | normalised viability ([16]; 100 nM) [%] | normalised viability ([17]; 10 nM) [%] | normalised viability ([18]; 100 nM) [%] | normalised viability ([19]; 100 nM) [%] | normalised viability ([20]; 10 nM) [%] | also measured
1 | C/C(=C\c1csc(C)n1)[C@@H]1C[C@@H]2O[C@]2(C)CCC[C@H](C)[C@H](O)[C@@H](C)C(=O)C(C)(C)[C@@H](O)CC(=O)N1 [Ixabepilone] | 0 | 0 | 0 | 0 | 11.7 | 0 | 0.915 | 0 | 0 | 0 | 1.3 | 0 | 0 | – | – | – | – | – | – | – | normalised viability ([14]; 10 nM): 73.3%; normalised viability ([15]; 10 nM): 77%; normalised viability ([16]; 10 nM): 76.4%; normalised viability ([17]; 1 nM): 90.5%; normalised viability ([18]; 10 nM): 81.2%; normalised viability ([19]; 10 nM): 94.9%; normalised viability ([20]; 1 nM): 104%; normalised viability ([21]; 10 nM): 95.2%; normalised viability ([22]; 10 nM): 98%; normalised viability ([23]; 1 nM): 89.6%; normalised viability ([24]; 1 nM): 90.1%; normalised viability ([25]; 10 nM): 105%; normalised viability ([26]; 10 nM): 95.2%; normalised viability ([27]; 10 nM): 91.1%; normalised viability ([28]; 10 nM): 96.6%; normalised viability ([29]; 1 nM): 94.3%
2 | COc1cc(Nc2c(C#N)cnc3cc(OCCCN4CCN(C)CC4)c(OC)cc23)c(Cl)cc1Cl [Bosutinib] | 0 | 2.51 | 3.59 | 0.637 | 5.81 | 1.87 | 7.99 | 7.8 | 1.6 | 3.06 | 5.02 | 5.18 | 0 | 90.3 | 84.3 | 90.4 | 84.6 | 106 | 108 | 116 | normalised viability ([21]; 100 nM): 98.2%; normalised viability ([22]; 100 nM): 121%; normalised viability ([23]; 10 nM): 104%; normalised viability ([24]; 10 nM): 108%; normalised viability ([25]; 100 nM): 130%; normalised viability ([26]; 100 nM): 113%; normalised viability ([27]; 100 nM): 107%; normalised viability ([28]; 100 nM): 103%; normalised viability ([29]; 10 nM): 109%
3 | Cc1cc(Nc2nc(N[C@@H](C)c3ncc(F)cn3)ncc2Cl)[nH]n1 [AZD1480] | 0 | 0 | 1.75 | 0 | 0 | 0 | 0 | 0 | 0 | 0 | 0 | 0 | 0 | – | – | – | – | – | – | – | normalised viability ([14]; 10 nM): 89.8%; normalised viability ([15]; 10 nM): 87.5%; normalised viability ([16]; 10 nM): 96.9%; normalised viability ([17]; 1 nM): 88.9%; normalised viability ([18]; 10 nM): 90.8%; normalised viability ([19]; 10 nM): 109%; normalised viability ([20]; 1 nM): 112%; normalised viability ([21]; 10 nM): 100%; normalised viability ([22]; 10 nM): 98.1%; normalised viability ([23]; 1 nM): 108%; normalised viability ([24]; 1 nM): 106%; normalised viability ([25]; 10 nM): 135%; normalised viability ([26]; 10 nM): 94.3%; normalised viability ([27]; 10 nM): 105%; normalised viability ([28]; 10 nM): 124%; normalised viability ([29]; 1 nM): 98.2%
4 | CO[C@@]12[C@H](COC(N)=O)C3=C(C(=O)C(C)=C(N)C3=O)N1C[C@@H]1N[C@@H]12 [Mitomycin C] | 1.5 | 1.72 | 0.971 | 0 | 17.2 | 0 | 0 | 0 | 0 | 0.392 | 27.4 | 0 | 0 | 89.1 | 83.7 | 93.8 | 101 | 97.1 | 108 | 108 | normalised viability ([21]; 100 nM): 69.2%; normalised viability ([22]; 100 nM): 107%; normalised viability ([23]; 10 nM): 87.6%; normalised viability ([24]; 10 nM): 104%; normalised viability ([25]; 100 nM): 96.5%; normalised viability ([26]; 100 nM): 74.4%; normalised viability ([27]; 100 nM): 92%; normalised viability ([28]; 100 nM): 127%; normalised viability ([29]; 10 nM): 103%
5 | CN(Cc1cnc2nc(N)nc(N)c2n1)c1ccc(C(=O)N[C@@H](CCC(=O)O)C(=O)O)cc1 [Methotrexate] | 1.72 | 0 | 7.51 | 0 | 0 | 0 | 0 | 0 | 0.671 | 0 | 0 | 0 | 0 | 98.2 | 69.3 | 50.4 | 105 | 78.6 | 106 | 107 | normalised viability ([21]; 100 nM): 96.2%; normalised viability ([22]; 100 nM): 85.9%; normalised viability ([23]; 10 nM): 122%; normalised viability ([24]; 10 nM): 104%; normalised viability ([25]; 100 nM): 80.7%; normalised viability ([26]; 100 nM): 87.2%; normalised viability ([27]; 100 nM): 46.3%; normalised viability ([28]; 100 nM): 124%; normalised viability ([29]; 10 nM): 122%
6 | CC1(C)CCC(c2ccc(Cl)cc2)=C(CN2CCN(c3ccc(C(=O)NS(=O)(=O)c4ccc(N[C@H](CCN5CCOCC5)CSc5ccccc5)c(S(=O)(=O)C(F)(F)F)c4)cc3)CC2)C1 [Navitoclax] | 0 | 4.49 | 0 | 0 | 8.56 | 0 | 21.5 | – | 0 | 17.2 | 6.68 | 2.28 | 0 | 75.5 | 75.3 | 61.3 | 87 | 78.2 | 93.5 | 105 | normalised viability ([21]; 100 nM): 96.3%; normalised viability ([22]; 100 nM): 71.9%; normalised viability ([23]; 10 nM): 84.3%; normalised viability ([24]; 10 nM): 88.2%; normalised viability ([25]; 100 nM): 89.2%; normalised viability ([26]; 100 nM): 97.2%; normalised viability ([27]; 100 nM): 84.2%; normalised viability ([28]; 100 nM): 97.3%; normalised viability ([29]; 10 nM): 86.9%
